Where two headings read alike, the source gives them in different places.
What was measured:
[1] = molecular target: T1, human serotonin transporter (Homo sapiens, UniProt P31645); assay: Binding site inhibition in HEK-293 cell membranes transfected with human serotonin transporter ([3H]Citalopram)
T1 construct: expressed in transfected cells; host or cells: HEK-293, stably transfected

[2] = Regional brain uptake with and without preblocking by paroxetine or GBR 12909 (Table 5); type: in vivo, Sprague Dawley rats; settings: rat, iv, 60 min
Procedure: (§1) Regional Uptake (% dose/gram) and Ratios of
(§2) 95% ee(6S, 10bR)-I-McN in Sprague Dawley Rats
(§3) (n = 4) at 60 Min Following Preblocking
(§4) (5 mg/kg i.v. 15 min prior to radioligand)

[3] = system: serotonin transporter; dopamine transporter; assay: as above; type: in vivo, Sprague Dawley rats; settings: rat, 60 min
Procedure: as §1, §2, §3, §4

[4] = Tissue distribution of radioactivity after intravenous administration (Table 6); type: in vivo, Sprague Dawley rats; settings: rat, i.v., mean (range) of 4 rats; for tissue uptake at 0.5 h: 30 min; for tissue uptake at 1 h: 60 min; for tissue uptake at 2 h: 120 min
Source text: Distribution of Radioactivity in Tissues of Unfasted Male
Sprague Dawley Rats Following Intravenous Administration
of (+)-Trans-1,2,3,5,6,10b-hexahydro-6-
[4-iodophenyl]-pyrrolo[2,1-a]isoquinoline
Mean % Injected Dose/Gram (Range of 4 rats +/SD)

[5] = Regional brain distribution of radioactivity after intravenous administration (Table 4); type: in vivo, Sprague-Dawley rats; settings: iv, rat, i.v., mean of three rats; for tissue uptake at 0.5 h: 30 min; for tissue uptake at 1 h: 60 min; for tissue uptake at 2 h: 120 min
Source text: (§5) Regional Distribution of Radioactivity in Tissues of Unfasted
(§6) Male Sprague-Dawley Rats Following Intravenous Administration
(§7) iodophenyl)pyrrolo[2,1-a]isoquinoline
(§8) The cerebellum contains a very low density of serotonin transporter sites and is taken as "background" in this analysis of regional uptake.

serotonin transporter = assay: as above; type: in vivo, Sprague-Dawley rats; settings: rat, i.v.
Source text: as §5, §6, §7, §8

[6] = HEK-293 cells, human serotonin transporter, vs. [3H]Citalopram, read-out: 5-HT Ki
[7] = dopamine blocker GBR 12909 5 mg/kg i.v. 15 min prior
[8] = serotonin blocker paroxetine 5 mg/kg i.v. 15 min prior
[9] = blood, read-out: Blood, mean % injected dose/gram
[10] = brain, read-out: Brain, mean % injected dose/gram
[11] = heart, read-out: Heart, mean % injected dose/gram
[12] = kidney, read-out: Kidney, mean % injected dose/gram
[13] = liver, read-out: Liver, mean % injected dose/gram
[14] = lung, read-out: Lung, mean % injected dose/gram
[15] = muscle, read-out: Muscle, mean % injected dose/gram
[16] = spleen, read-out: Spleen, mean % injected dose/gram
[17] = thyroid, read-out: Thyroid, mean % injected dose/gram
[18] = cerebellum, read-out: Cerebellum, mean % injected dose/gram
[19] = cortex, read-out: Cortex, mean % injected dose/gram
[20] = hypothalamus, read-out: Hypothalamus, mean % injected dose/gram
[21] = prefrontal cortex, read-out: Prefrontal Cortex, mean % injected dose/gram
[22] = striatum, read-out: Striatum, mean % injected dose/gram

T1 sequence (P31645 whole entry): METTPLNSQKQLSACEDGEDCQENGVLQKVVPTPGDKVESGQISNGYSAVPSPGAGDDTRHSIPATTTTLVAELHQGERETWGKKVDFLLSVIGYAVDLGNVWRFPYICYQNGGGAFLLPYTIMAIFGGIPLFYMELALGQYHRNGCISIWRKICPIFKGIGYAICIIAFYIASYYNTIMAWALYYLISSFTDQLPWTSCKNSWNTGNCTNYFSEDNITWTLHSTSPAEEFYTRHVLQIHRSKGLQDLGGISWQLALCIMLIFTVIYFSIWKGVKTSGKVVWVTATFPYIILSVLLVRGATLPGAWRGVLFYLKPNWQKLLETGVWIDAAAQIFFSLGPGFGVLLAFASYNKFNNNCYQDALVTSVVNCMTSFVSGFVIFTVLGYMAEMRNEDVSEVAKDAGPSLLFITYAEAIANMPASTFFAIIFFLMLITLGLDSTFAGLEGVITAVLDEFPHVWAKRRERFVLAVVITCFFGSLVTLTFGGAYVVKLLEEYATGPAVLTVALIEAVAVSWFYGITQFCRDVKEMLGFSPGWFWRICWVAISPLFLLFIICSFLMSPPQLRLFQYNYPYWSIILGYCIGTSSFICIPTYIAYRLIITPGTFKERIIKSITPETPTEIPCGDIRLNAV

## FCCc1ccc([C@@H]2CN3CCC[C@@H]3c3ccccc32)cc1 (relative stereo) [racemic CH2 CH2 F]
[1]; [6]
  Ki: 13 nM

## C=Cc1ccc([C@@H]2CN3CCC[C@@H]3c3ccccc32)cc1 (relative stereo) [racemic CH=CH2]
[1]
  Ki: 3.7 nM

## FCCSc1ccc([C@@H]2CN3CCC[C@@H]3c3ccccc32)cc1 (relative stereo) [racemic SCH2 CH2 F]
[1]; [6]
  Ki: 5.7 nM

## FCCSc1ccc([C@@H]2CN3CCC[C@@H]3c3ccccc32)cc1 (single isomer, unassigned) [95% ee (+) SCH2 CH2 F]
[1]; [6]
  Ki: 2.6 nM

## FCCSc1ccc([C@@H]2CN3CCC[C@@H]3c3ccccc32)cc1 (single isomer, unassigned) [95% ee (-) SCH2 CH2 F]
[1]; [6]
  Ki: 6.4 nM

## [123I]c1ccc([C@@H]2CN3CCC[C@@H]3c3ccccc32)cc1 [95% ee(6S, 10bR)-I-McN, [^123 I](+)-Trans-1,2,3,5,6,10b-hexaydro-6-[4-iodophenyl]-pyrrolo[2,1-a]isoquinoline]
[2]; cerebellum, 5 mg/kg, dopamine blocker GBR 12909 5 mg/kg i.v. 15 min prior, read-out: Cerebellum uptake
  tissue uptake at 1 h: 0.55 %ID/g
[2]; cerebellum, no blocker, read-out: Cerebellum uptake
  tissue uptake at 1 h: 0.46 %ID/g
[2]; cerebellum, serotonin blocker paroxetine 5 mg/kg i.v. 15 min prior, read-out: Cerebellum uptake
  tissue uptake at 1 h: 0.43 %ID/g
[2]; cortex, 5 mg/kg, dopamine blocker GBR 12909 5 mg/kg i.v. 15 min prior, read-out: Cortex uptake
  tissue uptake at 1 h: 2.1 %ID/g
[2]; cortex, no blocker, read-out: Cortex uptake
  tissue uptake at 1 h: 1.88 %ID/g
[2]; cortex, serotonin blocker paroxetine 5 mg/kg i.v. 15 min prior, read-out: Cortex uptake
  tissue uptake at 1 h: 1.8 %ID/g
[2]; hypothalamus, 5 mg/kg, dopamine blocker GBR 12909 5 mg/kg i.v. 15 min prior, read-out: Hypothalamus uptake
  tissue uptake at 1 h: 3.62 %ID/g
[2]; hypothalamus, no blocker, read-out: Hypothalamus uptake
  tissue uptake at 1 h: 3.75 %ID/g
[2]; hypothalamus, serotonin blocker paroxetine 5 mg/kg i.v. 15 min prior, read-out: Hypothalamus uptake
  tissue uptake at 1 h: 2 %ID/g
[2]; prefrontal cortex, 5 mg/kg, dopamine blocker GBR 12909 5 mg/kg i.v. 15 min prior, read-out: Prefrontal Cortex uptake
  tissue uptake at 1 h: 2.8 %ID/g
[2]; prefrontal cortex, no blocker, read-out: Prefrontal Cortex uptake
  tissue uptake at 1 h: 2.3 %ID/g
[2]; prefrontal cortex, serotonin blocker paroxetine 5 mg/kg i.v. 15 min prior, read-out: Prefrontal Cortex uptake
  tissue uptake at 1 h: 1.98 %ID/g
[2]; striatum, 5 mg/kg, dopamine blocker GBR 12909 5 mg/kg i.v. 15 min prior, read-out: Striatum uptake
  tissue uptake at 1 h: 1.36 %ID/g
[2]; striatum, no blocker, read-out: Striatum uptake
  tissue uptake at 1 h: 2.21 %ID/g
[2]; striatum, serotonin blocker paroxetine 5 mg/kg i.v. 15 min prior, read-out: Striatum uptake
  tissue uptake at 1 h: 1.39 %ID/g
[3]; [7]
  Cortex/Cereb ratio: 3.82
  Hypthal/Cereb ratio: 6.6
  PrefCx/Cereb ratio: 5.1
  Striatum/Cereb ratio: 2.47
[3]; no blocker
  Cortex/Cereb ratio: 4.08
  Hypthal/Cereb ratio: 8.15
  PrefCx/Cereb ratio: 5.0
  Striatum/Cereb ratio: 4.8
[3]; [8]
  Cortex/Cereb ratio: 4.18
  Hypthal/Cereb ratio: 4.65
  PrefCx/Cereb ratio: 4.6
  Striatum/Cereb ratio: 3.2

## Ic1ccc([C@@H]2CN3CCC[C@@H]3c3ccccc32)cc1 [(+)-Trans-1,2,3,5,6,10b-hexahydro-6-[4-iodophenyl]-pyrrolo[2,1-a]isoquinoline]
[4]; [9]
  tissue uptake at 0.5 h: 0.24 %ID/g
  tissue uptake at 1 h: 0.3 %ID/g
  tissue uptake at 2 h: 0.21 %ID/g
[4]; [10]
  tissue uptake at 0.5 h: 0.85 %ID/g
  tissue uptake at 1 h: 0.7 %ID/g
  tissue uptake at 2 h: 0.43 %ID/g
[4]; [11]
  tissue uptake at 0.5 h: 0.55 %ID/g
  tissue uptake at 1 h: 0.51 %ID/g
  tissue uptake at 2 h: 0.47 %ID/g
[4]; [12]
  tissue uptake at 0.5 h: 0.84 %ID/g
  tissue uptake at 1 h: 0.66 %ID/g
  tissue uptake at 2 h: 0.79 %ID/g
[4]; [13]
  tissue uptake at 0.5 h: 1.62 %ID/g
  tissue uptake at 1 h: 1.26 %ID/g
  tissue uptake at 2 h: 1.18 %ID/g
[4]; [14]
  tissue uptake at 0.5 h: 1.53 %ID/g
  tissue uptake at 1 h: 1.28 %ID/g
  tissue uptake at 2 h: 0.92 %ID/g
[4]; [15]
  tissue uptake at 0.5 h: 0.27 %ID/g
  tissue uptake at 1 h: 0.26 %ID/g
  tissue uptake at 2 h: 0.27 %ID/g
[4]; [16]
  tissue uptake at 0.5 h: 1 %ID/g
  tissue uptake at 1 h: 0.74 %ID/g
  tissue uptake at 2 h: 0.54 %ID/g
[4]; [17]
  tissue uptake at 0.5 h: 1.07 %ID/g
  tissue uptake at 1 h: 1.5 %ID/g
  tissue uptake at 2 h: 1.04 %ID/g

## [123I]c1ccc([C@@H]2CN3CCC[C@@H]3c3ccccc32)cc1 [(+)-[^123 I]6, (+)-(6S, 10bR)-1,2,3,5,6,10b-hexahydro-6-(4'-[^123 I]iodophenyl)pyrrolo[2,1-a]-isoquinoline]
[5]; [18]
  tissue uptake at 5 min: 1.23 %ID/g
  tissue uptake at 0.5 h: 0.78 %ID/g
  tissue uptake at 1 h: 0.58 %ID/g
  tissue uptake at 2 h: 0.39 %ID/g
[5]; [19]
  tissue uptake at 5 min: 2.06 %ID/g
  tissue uptake at 0.5 h: 1.6 %ID/g
  tissue uptake at 1 h: 0.89 %ID/g
  tissue uptake at 2 h: 0.74 %ID/g
[5]; [20]
  tissue uptake at 5 min: 3.69 %ID/g
  tissue uptake at 0.5 h: 3.59 %ID/g
  tissue uptake at 1 h: 3.73 %ID/g
  tissue uptake at 2 h: 2.85 %ID/g
[5]; [21]
  tissue uptake at 5 min: 5 %ID/g
  tissue uptake at 0.5 h: 3.72 %ID/g
  tissue uptake at 1 h: 3.13 %ID/g
  tissue uptake at 2 h: 2.25 %ID/g
[5]; [22]
  tissue uptake at 5 min: 3.43 %ID/g
  tissue uptake at 0.5 h: 2.46 %ID/g
  tissue uptake at 1 h: 2.28 %ID/g
  tissue uptake at 2 h: 2.06 %ID/g
Serotonin transporter
  accumulation in brain regions: greatest accumulation in brain regions rich in serotoninergic neurons
Serotonin transporter; 5 min
  Cortex/Cereb ratio: 1.7
  Hypothal/Cereb ratio: 3.0
  PrefCx/Cereb ratio: 4.1
  Striatum/Cereb ratio: 2.9
Serotonin transporter; 30 min
  Cortex/Cereb ratio: 2.1
  Hypothal/Cereb ratio: 4.6
  PrefCx/Cereb ratio: 4.8
  Striatum/Cereb ratio: 3.2
Serotonin transporter; 60 min
  Cortex/Cereb ratio: 1.6
  Hypothal/Cereb ratio: 6.5
  PrefCx/Cereb ratio: 5.4
  Striatum/Cereb ratio: 4.0
Serotonin transporter; 120 min
  Cortex/Cereb ratio: 1.9
  Hypothal/Cereb ratio: 7.3
  PrefCx/Cereb ratio: 5.8
  Striatum/Cereb ratio: 5.3

Source: patent US6162417A, “Pyrrolo isoquinolines” (Emory University, priority 1998, dated 2000)
